Measurements published in publication PMC2362650, “Phase I and pharmacokinetic study of the topoisomerase II catalytic inhibitor fostriecin” (British Journal of Cancer, 1999).
Read-outs that look alike come from different tables or passages of the source.

Key:
GLC4/VM20x = test system: GLC4/VM20x; design: method as in Withoff et al, 1996; conditions: ref Withoff et al, 1996; cited from earlier work
[1] = Plasma and urine pharmacokinetics (HPLC-UV) in patients after 60-min IV infusion; type: in vivo, human; conditions: human; for Cmax / AUC / MRT / half-life: plasma, intravenous, day 1 course 1; for Cmax: observed value; for MRT: read-out: MRT
Description: Fostriecin (CI-920) is a topoisomerase (topo) II catalytic activity inhibitor (Boritzki et al, 1988) (Figure 1). This novel class of topo II-targeting drugs is considered of potential value for treatment of patients with tumours resistant to classic topo II poisons, including anthracyclines and podophyllotoxins (Cummings and Smyth, 1993). The nuclear enzyme topo II is essential for the regulation of DNA conformation (reviewed in Osheroff et al, 1991). Central in its action is the formation of a complex with DNA. Stabilization of this complex by topo II poisons induces DNA damage and cell death (Froelich-Ammon and Osheroff, 1995). Decreased complex formation due to decreased topo II levels is considered to be an important mechanism of tumour-resistance to topo II poisons (Beck and Danks, 1991). The topo II catalytic inhibitor fostriecin is expected to have increased activity against tumour cells with low topo II levels and this was confirmed in in vitro studies (De Jong et al, 1991). […] Because of increased toxi- city of fostriecin in dogs compared to mice, a dose below one-third of the one-tenth mouse equivalent LD10, 2 mg m-2 day-1, was chosen as starting dose in humans (Clinical Brochure Fostriecin, 1991). […] We also performed an analysis of the human pharmacokinetics of fostriecin and ex vivo experiments to investigate if the plasma drug concentrations achieved were sufficient to inhibit a tenipo- side-resistant tumour cell line. The maximum tolerated dose (MTD) of fostriecin could not be established because drug supply was stopped prematurely. However, results of this study may provide a basis for continued clinical development of this agent. PATIENTS AND METHODS Patient selection, drug administration and evaluation Patient eligibility criteria were: histologically confirmed diagnosis of a solid tumour, no longer amenable to established forms of treatment; age 18-75 years; Eastern Cooperative Oncology Group (ECOG) performance status 2; life expectancy 12 weeks; no Phase I and pharmacokinetic study of the topoisomerase II catalytic inhibitor fostriecin RS de Jong1, NH Mulder1, DRA Uges2, DTh Sleijfer1, FJP Hoppener4, HJM Groen3, PHB Willemse1, WTA van der Graaf1 and EGE de Vries1 Departments of 1Medical Oncology, 2Pharmacy and Toxicology, and 3Pulmonary Diseases, University Hospital Groningen, The Netherlands; 4EORTC New Drug Development Office, Amsterdam, The Netherlands Summary We conducted a phase I and pharmacokinetic study of the topoisomerase II catalytic inhibitor fostriecin. Fostriecin was administered intravenously over 60 min on days 1-5 at 4-week intervals. Dose was escalated from 2 mg m-2 day-1 to 20 mg m-2 day-1 in 20 patients. Drug pharmacokinetics was analysed with high performance liquid chromatography with UV-detection. Plasma collected during drug administration was tested in vitro for growth inhibition of a teniposide-resistant small-cell lung cancer (SCLC) cell line. The predominant toxicities were elevated liver transaminases (maximum common toxicity criteria (CTC) grade 4) and serum creatinine (maximum CTC grade 2). […] Duration of elevated alanine-amino transferase (ALT) was dose-limiting in one patient at 20 mg m-2. Other frequent toxicities were grade 1-2 nausea/vomiting, fever and mild fatigue. […] A metabolite, most probably dephosphorylated fostriecin, was detected in plasma and urine. […] However, further escalation seems possible and is warranted to achieve potentially effective drug levels. Fostriecin has a short plasma half-life and longer duration of infusion should be considered. […]

[2] = 2 mg, patient no. 1, 2 mg m-2, one-compartment model
[3] = 2 mg, patient no. 3, 2 mg m-2, one-compartment model
[4] = 2 mg, patient no. 4, 2 mg m-2, one-compartment model
[5] = 4 mg, patient no. 5, 4 mg m-2, one-compartment model
[6] = 4 mg, patient no. 6, 4 mg m-2, one-compartment model
[7] = 4 mg, patient no. 7, 4 mg m-2, two-compartment model
[8] = 6.6 mg, patient no. 11, 6.6 mg m-2, two-compartment model
[9] = 6.6 mg, patient no. 12, 6.6 mg m-2, two-compartment model
[10] = 10 mg, patient no. 13, 10 mg m-2, two-compartment model
[11] = 10 mg, patient no. 15, 10 mg m-2, two-compartment model
[12] = 12.2 mg, patient no. 16, 12.2 mg m-2, two-compartment model

SMILES: C[C@@](O)(/C=C/[C@H]1CC=CC(=O)O1)[C@@H](C[C@@H](O)\C=C/C=C\C=C\CO)OP(=O)(O)O [fostriecin]
- sensitivity of GLC4/VM20x relative to GLC4 (GLC4/VM20x): 1.7 times
- number of patients with fostriecin detectable in plasma more than 7 h after infusion ([1]; in vivo): one
- Cmax ([1]; 2 mg, patient no. 1, 2 mg m-2): 0.495 µg/mL
- AUC [1, 2]: 0.739 µg·h/mL
- MRT [1, 2]: 51.6 min
- half-life ([1]; 2 mg, patient no. 1, 2 mg m-2, one-compartment model, read-out: t1/2 (converted)): 36 min
- Cmax ([1]; 2 mg, patient no. 3, 2 mg m-2): 0.597 µg/mL
- AUC [1, 3]: 0.81 µg·h/mL
- MRT [1, 3]: 46.2 min
- half-life ([1]; 2 mg, patient no. 3, 2 mg m-2, one-compartment model, read-out: t1/2 (converted)): 32.4 min
- Cmax ([1]; 2 mg, patient no. 4, 2 mg m-2): 0.371 µg/mL
- AUC [1, 4]: 0.468 µg·h/mL
- MRT [1, 4]: 30.6 min
- half-life ([1]; 2 mg, patient no. 4, 2 mg m-2, one-compartment model, read-out: t1/2 (converted)): 21 min
- Cmax ([1]; 4 mg, patient no. 5, 4 mg m-2): 1.16 µg/mL
- AUC [1, 5]: 1.36 µg·h/mL
- MRT [1, 5]: 43.2 min
- half-life ([1]; 4 mg, patient no. 5, 4 mg m-2, one-compartment model, read-out: t1/2 (converted)): 30 min
- Cmax ([1]; 4 mg, patient no. 6, 4 mg m-2): 0.956 µg/mL
- AUC [1, 6]: 1.17 µg·h/mL
- MRT [1, 6]: 40.2 min
- half-life ([1]; 4 mg, patient no. 6, 4 mg m-2, one-compartment model, read-out: t1/2 (converted)): 27.6 min
- Cmax ([1]; 4 mg, patient no. 7, 4 mg m-2): 0.94 µg/mL
- AUC [1, 7]: 1.49 µg·h/mL
- MRT [1, 7]: 116 min
- half-life ([1]; 4 mg, patient no. 7, 4 mg m-2, two-compartment model, read-out: t1/2 (initial) (converted)): 15.6 min
- half-life ([1]; 4 mg, patient no. 7, 4 mg m-2, two-compartment model, read-out: t1/2 (terminal) (converted)): 122 min
- Cmax ([1]; 6.6 mg, patient no. 11, 6.6 mg m-2): 1.4 µg/mL
- AUC [1, 8]: 1.65 µg·h/mL
- MRT [1, 8]: 26.4 min
- half-life ([1]; 6.6 mg, patient no. 11, 6.6 mg m-2, two-compartment model, read-out: t1/2 (initial) (converted)): 5.4 min
- half-life ([1]; 6.6 mg, patient no. 11, 6.6 mg m-2, two-compartment model, read-out: t1/2 (terminal) (converted)): 28.2 min
- Cmax ([1]; 6.6 mg, patient no. 12, 6.6 mg m-2): 1.86 µg/mL
- AUC [1, 9]: 2.45 µg·h/mL
- MRT [1, 9]: 37.8 min
- half-life ([1]; 6.6 mg, patient no. 12, 6.6 mg m-2, two-compartment model, read-out: t1/2 (initial) (converted)): 15 min
- half-life ([1]; 6.6 mg, patient no. 12, 6.6 mg m-2, two-compartment model, read-out: t1/2 (terminal) (converted)): 73.2 min
- Cmax ([1]; 10 mg, patient no. 13, 10 mg m-2): 2.24 µg/mL
- AUC [1, 10]: 3.35 µg·h/mL
- MRT [1, 10]: 55.2 min
- half-life ([1]; 10 mg, patient no. 13, 10 mg m-2, two-compartment model, read-out: t1/2 (initial) (converted)): 100 min
- half-life ([1]; 10 mg, patient no. 13, 10 mg m-2, two-compartment model, read-out: t1/2 (terminal) (converted)): 55.8 min
- Cmax ([1]; 10 mg, patient no. 15, 10 mg m-2): 2.45 µg/mL
- AUC [1, 11]: 3.77 µg·h/mL
- MRT [1, 11]: 60.6 min
- half-life ([1]; 10 mg, patient no. 15, 10 mg m-2, two-compartment model, read-out: t1/2 (initial) (converted)): 18 min
- half-life ([1]; 10 mg, patient no. 15, 10 mg m-2, two-compartment model, read-out: t1/2 (terminal) (converted)): 83.4 min
- Cmax ([1]; 12.2 mg, patient no. 16, 12.2 mg m-2): 3.2 µg/mL
- AUC [1, 12]: 4.23 µg·h/mL
- MRT [1, 12]: 56.4 min
- half-life ([1]; 12.2 mg, patient no. 16, 12.2 mg m-2, two-compartment model, read-out: t1/2 (initial) (converted)): 13.2 min
